pEC50: −log10 of the molar value.
Key:
[1] = biological target: T1, Sodium- and chloride-dependent glycine transporter 1 (Homo sapiens, UniProt P48067); assay: Displacement of [3H]glycine from human GlyT1 by radiometric assay
T1 sequence (P48067 whole entry): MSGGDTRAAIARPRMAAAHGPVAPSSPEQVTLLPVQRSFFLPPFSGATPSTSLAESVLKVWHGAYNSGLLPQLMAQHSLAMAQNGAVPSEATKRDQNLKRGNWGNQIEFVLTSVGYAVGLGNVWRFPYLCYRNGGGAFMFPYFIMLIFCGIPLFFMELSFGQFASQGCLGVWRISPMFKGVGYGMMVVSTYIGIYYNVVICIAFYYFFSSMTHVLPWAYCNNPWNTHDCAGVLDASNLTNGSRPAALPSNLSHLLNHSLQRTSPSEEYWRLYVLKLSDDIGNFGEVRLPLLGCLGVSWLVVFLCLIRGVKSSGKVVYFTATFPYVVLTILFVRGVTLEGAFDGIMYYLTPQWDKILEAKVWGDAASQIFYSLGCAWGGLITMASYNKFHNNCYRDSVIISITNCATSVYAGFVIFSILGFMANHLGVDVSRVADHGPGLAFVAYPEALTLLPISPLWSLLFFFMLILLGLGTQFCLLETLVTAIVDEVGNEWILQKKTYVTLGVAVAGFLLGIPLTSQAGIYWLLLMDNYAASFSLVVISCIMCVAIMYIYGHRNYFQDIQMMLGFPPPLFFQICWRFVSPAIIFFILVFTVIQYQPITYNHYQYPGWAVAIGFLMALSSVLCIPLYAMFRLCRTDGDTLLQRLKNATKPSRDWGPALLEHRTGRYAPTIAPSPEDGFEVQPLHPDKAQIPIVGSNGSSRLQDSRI

[2] = Maximum achievable bioavailability in human microsomes; type: ADME, Microsome; conditions: human liver microsomes, read-out: Max Achievable Bioavailability
[3] = Clearance in human microsomes; type: ADME, Microsome; conditions: human liver microsomes
[4] = Maximum achievable bioavailability in mouse microsomes; type: ADME, Liver, microsome; conditions: read-out: Max Achievable Bioavailability
[5] = Clearance in mouse microsomes; type: ADME, Liver, Microsome
[6] = biological target: T2, Sodium- and chloride-dependent glycine transporter 2 (Homo sapiens, UniProt Q9Y345); assay: Displacement of [3H]glycine from human GlyT2 by radiometric assay
T2 sequence (Q9Y345 whole entry): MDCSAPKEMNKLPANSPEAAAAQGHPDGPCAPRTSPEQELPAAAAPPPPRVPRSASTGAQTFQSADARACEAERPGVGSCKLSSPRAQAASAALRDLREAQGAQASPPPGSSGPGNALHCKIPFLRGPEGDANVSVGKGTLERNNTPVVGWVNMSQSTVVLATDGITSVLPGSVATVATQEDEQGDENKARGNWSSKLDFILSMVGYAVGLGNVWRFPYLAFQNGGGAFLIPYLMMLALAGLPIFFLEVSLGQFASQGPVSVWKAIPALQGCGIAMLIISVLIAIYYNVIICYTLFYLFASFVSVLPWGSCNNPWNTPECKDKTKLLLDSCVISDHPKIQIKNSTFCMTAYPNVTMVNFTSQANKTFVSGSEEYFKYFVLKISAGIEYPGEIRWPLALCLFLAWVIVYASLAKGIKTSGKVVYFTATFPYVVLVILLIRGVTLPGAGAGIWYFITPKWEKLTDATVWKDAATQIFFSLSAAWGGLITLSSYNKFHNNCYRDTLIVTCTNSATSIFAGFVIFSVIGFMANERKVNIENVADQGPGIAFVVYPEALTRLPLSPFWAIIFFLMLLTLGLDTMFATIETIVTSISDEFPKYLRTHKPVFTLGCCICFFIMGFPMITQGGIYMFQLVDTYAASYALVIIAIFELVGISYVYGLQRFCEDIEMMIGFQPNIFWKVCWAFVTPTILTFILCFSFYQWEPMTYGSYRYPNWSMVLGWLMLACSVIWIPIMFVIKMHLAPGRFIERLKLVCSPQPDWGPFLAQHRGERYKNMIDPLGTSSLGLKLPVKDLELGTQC

Row | Structure (SMILES) | pEC50 [1] | pEC50 [6] | other results
1 | O=C1NCN(c2ccccc2)C12CCN([C@@H]1CCCC[C@@]1(O)C1CCCCC1)CC2 (racemic) | 4.77 |  | 
2 | CCCN1CNC(=O)C12CCN([C@@H]1CCCC[C@@]1(O)c1ccccc1)CC2 (racemic) | 6.40 |  | Fh [2]: 84%; microsomal CLint [3]: 5 µL/min/mg; Fh [4]: 81%; microsomal CLint [5]: 7 µL/min/mg
3 | O=C1NCN(c2ccccc2)C12CCN([C@@H]1CCCC[C@@]1(O)c1ccc(F)cc1)CC2 (relative stereo) | 7.40 | 4.24 | 
4 | O=C1NCN(c2ccccc2)C12CCN([C@@H]1CCCC[C@@]1(O)c1ccccc1)CC2 (racemic) | 7.36 | 4.14 | 
5 | O=C1NCN(c2ccccc2)C12CCN([C@@H]1CCCC[C@@]1(O)c1cccnc1)CC2 (racemic) | 6.96 |  | 
6 | O=C1NCN(c2ccccc2)C12CCN([C@@H]1CCOC[C@@]1(O)c1ccccc1)CC2 (racemic) | 7.05 | < 4.00 | 
7 | O=C1NCN(c2ccccc2)C12CCN([C@@H]1COCC[C@@]1(O)c1ccccc1)CC2 (racemic) | 7.24 | 4.46 | 
8 | O=C1NCN(c2ccccc2)C12CCN([C@@H]1CCCC[C@@]1(O)c1cccc(Cl)c1)CC2 (racemic) | 6.89 | 4.68 | 
9 | O=C1NCN(c2ccccc2)C12CCN([C@@H]1CCCC[C@@]1(O)c1ccccn1)CC2 (racemic) | 6.89 | < 4.00 | 
10 | O=C1NCN(c2ccc(Cl)cc2)C12CCN([C@@H]1CCCC[C@@]1(O)c1ccc(F)cc1)CC2 (racemic) | 7.82 | 5.60 | 
11 | O=C1NCN(c2ccccc2)C12CCN([C@H]1CCCC[C@@]1(O)c1ccccc1)CC2 (racemic) | 7.25 | 4.59 | 
12 | O=C1NCN(c2ccccc2)C12CCN([C@@H]1CCCC[C@@]1(O)c1ccc(Cl)cc1)CC2 (racemic) | 7.10 | 4.80 | 
13 | COc1cccc([C@]2(O)CCCC[C@H]2N2CCC3(CC2)C(=O)NCN3c2ccccc2)c1 (racemic) | 6.89 | 4.39 | 
14 | O=C1NCN(c2ccc(F)cc2)C12CCN([C@@H]1CCCC[C@@]1(O)c1ccc(F)cc1)CC2 (racemic) | 7.62 | 4.44 | microsomal CLint [3]: 92 µL/min/mg; microsomal CLint [5]: 102 µL/min/mg
15 | O=C1NCN(c2ccc(F)cc2)C12CCN([C@@H]1CCCC[C@@]1(O)c1ccc(Cl)cc1)CC2 (racemic) | 7.62 | 4.72 | 
16 | CCCN1CNC(=O)C12CCN([C@H]1CCCC[C@H]1c1ccccc1)CC2 (racemic) |  |  | microsomal CLint [3]: 25 µL/min/mg; microsomal CLint [5]: 10 µL/min/mg
17 | O=C1NCN(c2ccccc2)C12CCN([C@@H]1CCCC[C@@]1(O)c1ccncc1)CC2 (racemic) | 7.21 | < 4.00 | 
18 | COc1ccc(N2CNC(=O)C23CCN([C@@H]2CCCC[C@@]2(O)c2ccc(Cl)cc2)CC3)cc1 (racemic) | 7.00 | 4.60 | 
19 | CC(C)(C)[C@]1(O)CCCC[C@H]1N1CCC2(CC1)C(=O)NCN2c1ccccc1 (racemic) | 4.54 |  | 
20 | O=C1NCN(c2ccccc2)C12CCN([C@@H]1CCCC[C@@]1(O)Cc1ccccc1)CC2 (racemic) | 5.36 |  | 
21 | Cc1ccc([C@]2(O)CCCC[C@H]2N2CCC3(CC2)C(=O)NCN3c2ccccc2)cc1 (racemic) | 6.85 | 4.60 | 
22 | CC(C)[C@]1(O)CCCC[C@H]1N1CCC2(CC1)C(=O)NCN2c1ccccc1 (mixture of isomers) | < 5.52 |  | 
23 | O=C1NCN(c2ccccc2)C12CCN([C@@H]1CCCC[C@@]1(O)c1ccc(Cl)c(Cl)c1)CC2 (racemic) | 6.76 | 5.22 | 
24 | Cc1ccccc1[C@]1(O)CCCC[C@H]1N1CCC2(CC1)C(=O)NCN2c1ccccc1 (racemic) | 7.30 | 4.15 | 
25 | C[C@]1(O)CCCC[C@H]1N1CCC2(CC1)C(=O)NCN2c1ccccc1 (racemic) | 5.05 |  | 
26 | O=C1NCN(c2ccccc2)C12CCN([C@H]1CCCC[C@H]1c1ccccc1)CC2 (racemic) |  |  | microsomal CLint [3]: 68 µL/min/mg
27 | COc1ccc([C@]2(O)CCCC[C@H]2N2CCC3(CC2)C(=O)NCN3c2ccccc2)cc1 (racemic) | 6.58 | 4.17 | 
